Values of other authors as cited in US5215744A, “Methods for the treatment of tumors” (Boehringer Ingelheim GmbH, priority 1987, dated 1993).

Key:
[1] = tested on: antimitotic effect of interferon and its natural killer cell activating activity; settings: with interferon; cited from earlier work
[2] = tested on: human promyelocytic leukemic cell line; settings: cited from earlier work
[3] = tested on: syngeneic Wilms Tumor (nephroblastoma); settings: rat, in vivo; cited from earlier work
C1300 neuroblastoma = settings: mouse, in vivo; cited from earlier work
HM-Kim mammary carcinoma = settings: rat, in vivo; cited from earlier work
cAMP = settings: cited from earlier work
neoplastic cells = settings: cited from earlier work
[4] = tested on: interferon antitumor / growth inhibitory effect; settings: cited from earlier work
PDE = settings: cited from earlier work

OCCN(CCO)c1nc(N2CCCCC2)c2nc(N(CCO)CCO)ncc2n1 [mopidamole, 2,6-bis-(diethanolamino)-4-piperidino-pyrimido[5,4-d]pyrimidine]
potentiation of interferon antimitotic effect and NK cell activating activity [1]: potentiates the antimitotic effect of interferon and its natural killer cell activating activity | reverse transformation of malignant cells [2]: promotes a reverse transformation of the malignant cells to normal | spontaneous lung metastases [3]: diminish significantly spontaneous lung metastases | spontaneous lung metastases (C1300 neuroblastoma): diminish significantly spontaneous lung metastases | spontaneous lung metastases (HM-Kim mammary carcinoma): diminish significantly spontaneous lung metastases | cAMP levels (cAMP): increase cAMP levels | 3H-thymidine incorporation (neoplastic cells): inhibition of 3H-thymidine incorporation into neoplastic cells | mitotic rate (neoplastic cells): direct inhibition of the mitotic rate | synergism with interferon ([4]; Ambrus et al. 1983): no synergism was seen | synergism with α and γ interferon ([4]; Wolf et al.): no synergistic inhibitory effect | effect on antitumor effect of leukocyte and fibroblastic interferon ([4]; tissue culture): potentiates the antitumor effect of leukocyte and fibroblastic interferon in tissue culture | effect on growth inhibition by human fibroblastic β-interferon ([4]; with β-interferon): potentiates the growth inhibitory effect of human fibroblastic β-interferon | PDE induced decomposition of cAMP (PDE): inhibition of PDE induced decomposition of cAMP
